According to publication PMC5428509, “Irreversible inhibition of BTK kinase by a novel highly selective inhibitor CHMFL-BTK-11 suppresses inflammatory response in rheumatoid arthritis model” (Scientific Reports, 2017):

How the values were obtained:
Experiment in all cases: biochemical
Parameters in all cases: KinomeScan competition binding panel (DiscoveRx), percent of control at 1 uM
Details in all cases: read-out: Percent Control
ABL1-nonphosphorylated = target: T1, ABL1-nonphosphorylated (Homo sapiens, UniProt P00519)
T1 construct: nonphosphorylated
T1 sequence (P00519 whole entry): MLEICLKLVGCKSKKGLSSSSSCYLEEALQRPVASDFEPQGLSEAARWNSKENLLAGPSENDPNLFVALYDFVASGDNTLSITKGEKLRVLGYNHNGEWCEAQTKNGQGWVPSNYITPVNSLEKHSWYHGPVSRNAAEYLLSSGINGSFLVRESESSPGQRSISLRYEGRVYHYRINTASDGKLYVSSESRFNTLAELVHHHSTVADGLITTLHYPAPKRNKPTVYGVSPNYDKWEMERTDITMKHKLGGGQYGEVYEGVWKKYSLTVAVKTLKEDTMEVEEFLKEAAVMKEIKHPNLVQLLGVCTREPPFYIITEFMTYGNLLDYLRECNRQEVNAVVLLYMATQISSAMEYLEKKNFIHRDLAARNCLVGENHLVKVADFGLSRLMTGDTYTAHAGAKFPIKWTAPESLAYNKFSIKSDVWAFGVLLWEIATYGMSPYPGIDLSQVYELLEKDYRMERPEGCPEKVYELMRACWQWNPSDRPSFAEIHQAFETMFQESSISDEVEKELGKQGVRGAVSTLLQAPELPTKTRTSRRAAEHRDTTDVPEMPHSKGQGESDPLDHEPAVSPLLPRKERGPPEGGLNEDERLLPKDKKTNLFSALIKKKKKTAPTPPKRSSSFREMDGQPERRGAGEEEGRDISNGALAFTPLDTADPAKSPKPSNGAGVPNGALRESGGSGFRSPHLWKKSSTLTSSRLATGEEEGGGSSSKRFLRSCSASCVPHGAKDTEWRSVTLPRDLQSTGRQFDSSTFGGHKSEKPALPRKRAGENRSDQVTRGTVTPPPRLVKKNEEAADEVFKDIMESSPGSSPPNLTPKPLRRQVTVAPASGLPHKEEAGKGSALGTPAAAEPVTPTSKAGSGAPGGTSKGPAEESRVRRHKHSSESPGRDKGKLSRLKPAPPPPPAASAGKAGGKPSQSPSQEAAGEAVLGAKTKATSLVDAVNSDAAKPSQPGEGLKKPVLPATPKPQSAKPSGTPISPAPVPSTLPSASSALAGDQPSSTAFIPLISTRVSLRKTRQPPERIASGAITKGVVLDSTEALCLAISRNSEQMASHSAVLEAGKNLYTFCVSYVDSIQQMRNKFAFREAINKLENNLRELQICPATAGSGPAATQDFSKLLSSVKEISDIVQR
Summary of the method: (§1)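 KinomeScan technology used to profile binding across a panel of 456 kinases and mutants.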

ALK = ALK (Homo sapiens, UniProt Q9UM73)
Summary of the method: as §1

CAMK1G = CAMK1G (Homo sapiens, UniProt Q96NX5)
Chain of CAMK1G (Q96NX5 whole entry): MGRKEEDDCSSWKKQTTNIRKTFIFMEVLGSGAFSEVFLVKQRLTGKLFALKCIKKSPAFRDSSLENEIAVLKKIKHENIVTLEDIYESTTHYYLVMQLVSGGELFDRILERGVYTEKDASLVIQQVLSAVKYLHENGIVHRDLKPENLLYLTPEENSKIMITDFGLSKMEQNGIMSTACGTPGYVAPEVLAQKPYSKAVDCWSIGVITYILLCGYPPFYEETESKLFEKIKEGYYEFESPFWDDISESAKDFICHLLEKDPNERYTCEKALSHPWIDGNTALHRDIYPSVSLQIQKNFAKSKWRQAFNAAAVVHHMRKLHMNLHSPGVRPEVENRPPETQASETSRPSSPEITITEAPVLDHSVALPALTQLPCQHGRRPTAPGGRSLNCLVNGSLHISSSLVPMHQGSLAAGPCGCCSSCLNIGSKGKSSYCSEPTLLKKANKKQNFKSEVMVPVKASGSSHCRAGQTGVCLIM
Summary of the method: as §1

CDK4-cyclinD3 = target: T2, CDK4-cyclinD3 (Homo sapiens, UniProt P11802)
T2 construct: cyclinD3
Summary of the method: as §1

CSNK1D = CSNK1D (Homo sapiens, UniProt P48730)
Chain of CSNK1D (P48730 whole entry): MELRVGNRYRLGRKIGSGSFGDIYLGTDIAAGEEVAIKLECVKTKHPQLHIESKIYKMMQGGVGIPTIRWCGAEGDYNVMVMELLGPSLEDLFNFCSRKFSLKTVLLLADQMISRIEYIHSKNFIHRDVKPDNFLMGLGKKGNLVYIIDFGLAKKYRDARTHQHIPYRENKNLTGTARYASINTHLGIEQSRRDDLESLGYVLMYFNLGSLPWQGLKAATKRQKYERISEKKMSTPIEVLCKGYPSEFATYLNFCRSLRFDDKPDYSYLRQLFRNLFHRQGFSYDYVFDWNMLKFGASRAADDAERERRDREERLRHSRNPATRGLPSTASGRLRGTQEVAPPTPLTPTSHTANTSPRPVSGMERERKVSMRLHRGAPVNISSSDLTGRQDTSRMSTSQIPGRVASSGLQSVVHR
Summary of the method: as §1

CSNK1G3 = CSNK1G3 (Homo sapiens, UniProt Q9Y6M4)
Chain of CSNK1G3 (Q9Y6M4 whole entry): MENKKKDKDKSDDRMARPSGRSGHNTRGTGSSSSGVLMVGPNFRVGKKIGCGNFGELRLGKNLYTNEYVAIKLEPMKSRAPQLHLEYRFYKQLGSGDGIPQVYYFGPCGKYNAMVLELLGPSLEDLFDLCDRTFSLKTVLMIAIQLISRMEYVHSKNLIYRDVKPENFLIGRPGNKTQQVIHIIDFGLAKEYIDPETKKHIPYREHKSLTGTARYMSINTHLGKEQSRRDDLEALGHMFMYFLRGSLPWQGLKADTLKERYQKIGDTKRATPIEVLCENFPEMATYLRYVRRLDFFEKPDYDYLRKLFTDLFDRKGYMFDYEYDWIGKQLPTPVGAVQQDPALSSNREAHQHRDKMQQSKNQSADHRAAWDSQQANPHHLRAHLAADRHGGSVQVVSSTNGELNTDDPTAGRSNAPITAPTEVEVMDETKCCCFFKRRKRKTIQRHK
Summary of the method: as §1

DAPK1 = DAPK1 (Homo sapiens, UniProt P53355)
Summary of the method: as §1

DRAK1 = target: T3, DRAK1 (Homo sapiens, UniProt Q9UEE5)
T3 construct: gene STK17A
Summary of the method: as §1

ERK8 = target: T4, ERK8 (Homo sapiens, UniProt Q8TD08)
T4 construct: gene MAPK15
Summary of the method: as §1

IKK-epsilon = target: T5, IKK-epsilon (Homo sapiens, UniProt Q14164)
T5 construct: gene IKBKE
Summary of the method: as §1

[1] = target: T6, JAK1(JH2domain-pseudokinase) (Homo sapiens, UniProt P23458)
T6 construct: JH2domain-pseudokinase
Summary of the method: as §1

KIT(A829P) = KIT(A829P) (Homo sapiens, UniProt P10721, A829P)
Summary of the method: as §1

MLK3 = target: T7, MLK3 (Homo sapiens, UniProt Q16584)
T7 construct: gene MAP3K11
Summary of the method: as §1

MYLK2 = MYLK2 (Homo sapiens, UniProt Q9H1R3)
Summary of the method: as §1

PAK3 = PAK3 (Homo sapiens, UniProt O75914)
Summary of the method: as §1

PIK3C2B = PIK3C2B (Homo sapiens, UniProt O00750)
Summary of the method: as §1

PIK3CA(E542K) = PIK3CA(E542K) (Homo sapiens, UniProt P42336, E542K)
Summary of the method: as §1

PKN2 = PKN2 (Homo sapiens, UniProt Q16513)
Chain of PKN2 (Q16513 whole entry): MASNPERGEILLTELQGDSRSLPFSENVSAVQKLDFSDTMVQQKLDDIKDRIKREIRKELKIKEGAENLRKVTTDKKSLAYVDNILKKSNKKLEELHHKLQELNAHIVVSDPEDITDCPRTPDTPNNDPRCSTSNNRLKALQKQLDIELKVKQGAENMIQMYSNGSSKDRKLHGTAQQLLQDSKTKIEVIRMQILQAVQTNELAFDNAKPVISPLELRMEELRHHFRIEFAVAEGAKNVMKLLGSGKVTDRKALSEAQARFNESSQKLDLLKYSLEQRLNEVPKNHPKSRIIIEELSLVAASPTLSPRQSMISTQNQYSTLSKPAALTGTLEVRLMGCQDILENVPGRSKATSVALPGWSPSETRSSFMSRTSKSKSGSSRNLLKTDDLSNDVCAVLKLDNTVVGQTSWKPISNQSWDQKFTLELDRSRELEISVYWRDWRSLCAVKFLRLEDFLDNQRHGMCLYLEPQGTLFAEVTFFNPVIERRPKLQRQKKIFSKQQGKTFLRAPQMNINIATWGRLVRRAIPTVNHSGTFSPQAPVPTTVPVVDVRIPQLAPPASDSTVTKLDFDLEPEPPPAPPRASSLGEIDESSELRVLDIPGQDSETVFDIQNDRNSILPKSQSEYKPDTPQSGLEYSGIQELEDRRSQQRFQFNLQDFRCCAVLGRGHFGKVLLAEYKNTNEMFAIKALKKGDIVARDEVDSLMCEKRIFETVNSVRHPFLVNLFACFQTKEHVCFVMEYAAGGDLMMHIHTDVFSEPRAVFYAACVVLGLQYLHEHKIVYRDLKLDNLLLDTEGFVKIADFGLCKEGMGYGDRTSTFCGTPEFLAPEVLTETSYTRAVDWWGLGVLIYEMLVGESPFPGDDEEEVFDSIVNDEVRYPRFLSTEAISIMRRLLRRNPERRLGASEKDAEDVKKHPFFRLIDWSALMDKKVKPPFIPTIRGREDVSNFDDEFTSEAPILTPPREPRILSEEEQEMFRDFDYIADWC
Summary of the method: as §1

QSK = target: T8, QSK (Homo sapiens, UniProt Q9Y2K2)
T8 construct: gene SIK3
Summary of the method: as §1

RET(M918T) = RET(M918T) (Homo sapiens, UniProt P07949, M918T)
Summary of the method: as §1

[2] = target: T9, RSK2(Kin.Dom.2-C-terminal) (Homo sapiens, UniProt P51812)
T9 construct: gene RPS6KA3; Kin.Dom.2-C-terminal
T9 sequence (P51812 whole entry): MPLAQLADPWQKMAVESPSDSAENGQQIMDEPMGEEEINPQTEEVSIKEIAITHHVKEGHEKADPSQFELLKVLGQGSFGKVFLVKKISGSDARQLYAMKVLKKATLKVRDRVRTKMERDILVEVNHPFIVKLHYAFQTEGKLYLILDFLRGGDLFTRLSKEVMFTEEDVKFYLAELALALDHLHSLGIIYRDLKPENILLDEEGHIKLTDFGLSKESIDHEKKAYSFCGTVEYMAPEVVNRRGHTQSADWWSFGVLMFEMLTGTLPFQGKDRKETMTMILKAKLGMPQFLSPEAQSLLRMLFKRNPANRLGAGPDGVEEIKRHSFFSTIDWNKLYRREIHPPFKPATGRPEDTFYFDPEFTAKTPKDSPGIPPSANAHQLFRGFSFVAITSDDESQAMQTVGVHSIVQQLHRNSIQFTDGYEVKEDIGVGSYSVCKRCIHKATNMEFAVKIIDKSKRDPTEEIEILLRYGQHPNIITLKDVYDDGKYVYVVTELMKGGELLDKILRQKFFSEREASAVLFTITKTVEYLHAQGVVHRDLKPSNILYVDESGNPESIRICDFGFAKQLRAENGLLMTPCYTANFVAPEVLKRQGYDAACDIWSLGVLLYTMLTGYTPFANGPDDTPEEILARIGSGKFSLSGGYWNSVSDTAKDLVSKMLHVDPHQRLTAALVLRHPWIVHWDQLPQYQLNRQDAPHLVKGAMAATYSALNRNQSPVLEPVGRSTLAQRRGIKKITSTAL
Summary of the method: as §1

[3] = target: T10, RSK4(Kin.Dom.1-N-terminal) (Homo sapiens, UniProt Q9UK32)
T10 construct: gene RPS6KA6; Kin.Dom.1-N-terminal
T10 sequence (Q9UK32 whole entry): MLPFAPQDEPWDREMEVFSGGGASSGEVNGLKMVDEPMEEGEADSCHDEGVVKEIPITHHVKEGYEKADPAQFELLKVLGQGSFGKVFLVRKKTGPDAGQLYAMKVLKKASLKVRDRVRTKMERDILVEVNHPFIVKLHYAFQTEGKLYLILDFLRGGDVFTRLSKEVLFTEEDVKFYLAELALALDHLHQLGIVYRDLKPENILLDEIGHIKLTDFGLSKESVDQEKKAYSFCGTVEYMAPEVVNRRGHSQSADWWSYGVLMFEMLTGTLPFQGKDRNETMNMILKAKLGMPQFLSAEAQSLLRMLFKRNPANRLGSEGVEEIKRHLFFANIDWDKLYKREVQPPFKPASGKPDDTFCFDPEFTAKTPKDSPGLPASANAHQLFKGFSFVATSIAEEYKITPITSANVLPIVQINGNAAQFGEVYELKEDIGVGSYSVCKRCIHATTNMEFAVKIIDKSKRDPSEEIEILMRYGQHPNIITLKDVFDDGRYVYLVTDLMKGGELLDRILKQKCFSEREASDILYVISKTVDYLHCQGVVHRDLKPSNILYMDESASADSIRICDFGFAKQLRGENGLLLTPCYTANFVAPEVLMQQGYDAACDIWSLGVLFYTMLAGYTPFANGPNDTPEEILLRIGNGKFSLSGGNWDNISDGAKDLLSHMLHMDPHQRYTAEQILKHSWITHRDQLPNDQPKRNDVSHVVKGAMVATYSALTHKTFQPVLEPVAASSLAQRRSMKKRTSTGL
Summary of the method: as §1

[4] = target: T11, RSK4(Kin.Dom.2-C-terminal) (Homo sapiens, UniProt Q9UK32)
T11 construct: gene RPS6KA6; Kin.Dom.2-C-terminal
T11 sequence (Q9UK32 whole entry): as above
Summary of the method: as §1

SGK = target: T12, SGK (Homo sapiens, UniProt O00141)
T12 construct: gene SGK1
Summary of the method: as §1

`C=CC(=O)Nc1cc(-n2c(=O)ccc3cnc4ccc(-n5cccn5)cc4c32)ccc1C` [CHMFL-BTK-11] gave a remaining binding at 1 µM (ABL1-nonphosphorylated) of 74%, a remaining binding at 1 µM (ALK) of 100% and a remaining binding at 1 µM (CAMK1G) of 84%. The remaining binding at 1 µM (CDK4-cyclinD3) was 100%, the remaining binding at 1 µM (CSNK1D) was 100% and the remaining binding at 1 µM (CSNK1G3) was 100%. The remaining binding at 1 µM (DAPK1) was 100%, the remaining binding at 1 µM (DRAK1) was 96% and the remaining binding at 1 µM (ERK8) was 99%. The remaining binding at 1 µM (IKK-epsilon) was 96%, the remaining binding at 1 µM [1] was 82% and the remaining binding at 1 µM (KIT(A829P)) was 98%. For the same molecule, the remaining binding at 1 µM (MLK3) was 100%, the remaining binding at 1 µM (MYLK2) was 100% and the remaining binding at 1 µM (PAK3) was 94%. The remaining binding at 1 µM (PIK3C2B) was 100%, the remaining binding at 1 µM (PIK3CA(E542K)) was 91% and the remaining binding at 1 µM (PKN2) was 100%. For the same molecule, the remaining binding at 1 µM (QSK) was 92%, the remaining binding at 1 µM (RET(M918T)) was 100% and the remaining binding at 1 µM [2] was 100%. The remaining binding at 1 µM [3] was 91%, the remaining binding at 1 µM [4] was 100% and the remaining binding at 1 µM (SGK) was 65%.
